The results in this text go back to patent publication US12110289B2, “Heterocyclic compounds, preparation methods and uses thereof” (InventisBio Co., Ltd., priority 2020, dated 2024).

Structures are written as SMILES.

One series concerns pooled human hepatocytes. Kind of series: Human hepatocyte clearance study. As to conditions: working cell density 0.5 × 10^6 viable cells/mL. It is filed as in vitro ADME. As to the method: (§1) The in vitro human hepatocyte clearance of compounds described here was studied using pooled human hepatocytes purchased from BioreclamationIVT (Westbury, NY, Cat #X008001, Lot #TQJ). The assay was conducted according to manufacturer's instruction. Briefly, 10 mM stock solutions of test compounds and positive control (Verapamil) were prepared in 100% DMSO. Thawing media (50 mL) used in the study consists of 31 mL Williams E medium (GIBCO Cat #12551-032), 15 mL isotonic percoll (GE Healthcare Cat #17-0891-09), 500 uL 100× GlutaMax (GIBCO Cat #35050), 750 uL HEPES (GIBCO Cat #15630-080), 2.5 mL FBS (Corning Cat #35-076-CVR), 50 uL human insulin (GIBCO Cat #12585-014) and 5 uL dexamethasone (NICPBP). Incubation media is made of Williams E medium supplemented with 1× GlutaMax. Both thawing medium and incubation medium (serum-free) were placed in a 37° C. water bath for at least 15 minutes prior to use. Compound stock solutions were diluted to 100 μM by combining 198 μL of 50% acetonitrile/50% water and 2 μL of 10 mM stock solution. Verapamil was use as positive control in the assay. Vials of cryopreserved hepatocytes were removed from storage and thawed in a 37° C. water bath with gentle shaking. Contents of the vial were poured into the 50 mL thawing medium conical tube. Vials were centrifuged at 100 g for 10 minutes at room temperature. […] […] […] The boiled hepatocytes were used to prepare negative samples. Aliquots of 198 μL hepatocytes were dispensed into each well of a 96-well non-coated plate. The plate was placed in the incubator on an orbital shaker at 500 rpm for approximately 10 minutes. Aliquots of 2 μL of the 100 μM test compound or positive control were added into respective wells of the non-coated 96-well plate to start the reaction. This assay was performed in duplicate. The plate was incubated in the incubator on an orbital shaker at 500 rpm for the designated time points. Twenty-five microliter of contents were transferred and mixed with 6 volumes (150 μL) of cold acetonitrile with IS (200 nM imipramine, 200 nM labetalol and 200 nM diclofenac) to terminate the reaction at time points of 0, 15, 30, 60, 90 and 120 minutes. Samples were centrifuged at 3,220 g for 25 minutes and aliquots of 150 μL of the supernatants were used for LC-MS/MS analysis. For data analysis, all calculations were carried out using Microsoft Excel. Peak areas were determined from extracted ion chromatograms. The in vitro half-life (t1/2) of parent compound was determined by regression analysis of the percent parent disappearance vs. time curve. […] Scaling factors for in vivo intrinsic clearance prediction using human hepatocytes are listed as: liver weight (g liver/kg body weight): 25.7; hepatocyte concentration (10^6 cells/g liver): 99; scaling factor: 2544.3.
Take `C=CC(=O)N1CCN(c2nc(=O)n(-c3c(C4CC4)nc(C)nc3C3CC3)c3nc(-c4c(N)cccc4F)c(F)cc23)[C@@H](C)C1` [Compound 29]: the “Human Hepatocyte Remaining Percentage @ 120 min (%)” value is on record as 60.8%.
Turning to `C=CC(=O)N1C[C@H](C)N(c2nc(=O)n(-c3c(C4CC4)nc(C)nc3C3CC3)c3nc(-c4c(O)cccc4F)c(F)cc23)C[C@H]1C` [Compound 52], the “Human Hepatocyte Remaining Percentage @ 120 min (%)” value came out at 65.3%.
As to `C=CC(=O)N1CCN(c2nc(=O)n(-c3ccc4c(ncn4C)c3C(C)C)c3nc(-c4ccccc4F)c(Cl)cc23)[C@@H](C)C1` [Compound 72], the “Human Hepatocyte Remaining Percentage @ 120 min (%)” value came out at 41.2%.

Staying with this series, now noted: working cell density 2 × 10^6 viable cells/mL.
`C=CC(=O)N1CCN(c2nc(=O)n(-c3c(C4CC4)ncnc3C3CC3)c3nc(-c4c(O)cccc4F)c(F)cc23)[C@@H](C)C1` [Compound 40]: the “Human Hepatocyte Remaining Percentage @ 120 min (%)” value came to 20.7%.
For the compound `C=CC(=O)N1CCN(c2nc(=O)n(-c3c(C4CC4)ncnc3C3CC3)c3nc(-c4c(N)cccc4F)c(F)cc23)[C@@H](C)C1` [Compound 41], the “Human Hepatocyte Remaining Percentage @ 120 min (%)” value stood at 38.9%.

Test system in the next series: not listed separately
The series can be described thus: Human hepatocyte clearance study. The following applies: human, pooled cryopreserved human hepatocytes (suspension); working cell density 0.5 × 10^6 viable cells/mL; read-out: Human In vitro Clint (μl/min/10^6 cells). It is filed as in vitro ADME. The procedure: as §1
With `C=CC(=O)N1CCN(c2nc(=O)n(-c3c(C4CC4)nc(C)nc3C3CC3)c3nc(-c4c(N)cccc4F)c(F)cc23)[C@@H](C)C1` [Compound 29], the hepatocyte CLint at 1 µM was determined as 8.5 µL/min/1e6 cells.
As to `C=CC(=O)N1C[C@H](C)N(c2nc(=O)n(-c3c(C4CC4)nc(C)nc3C3CC3)c3nc(-c4c(O)cccc4F)c(F)cc23)C[C@H]1C` [Compound 52], the hepatocyte CLint at 1 µM came to 7.3 µL/min/1e6 cells.
The same measure, in the same setting: to `C=CC(=O)N1CCN(c2nc(=O)n(-c3ccc4c(ncn4C)c3C(C)C)c3nc(-c4ccccc4F)c(Cl)cc23)[C@@H](C)C1` [Compound 72] belongs 13.3 µL/min/1e6 cells.

Still in this series, the particulars now being: human, pooled cryopreserved human hepatocytes (suspension); working cell density 0.5 × 10^6 viable cells/mL; read-out: Human In vitro T1/2.
On to `C=CC(=O)N1CCN(c2nc(=O)n(-c3c(C4CC4)nc(C)nc3C3CC3)c3nc(-c4c(N)cccc4F)c(F)cc23)[C@@H](C)C1` [Compound 29], for which the half-life at 1 µM was 2.72 h.
Same read-out and setting: with `C=CC(=O)N1C[C@H](C)N(c2nc(=O)n(-c3c(C4CC4)nc(C)nc3C3CC3)c3nc(-c4c(O)cccc4F)c(F)cc23)C[C@H]1C` [Compound 52] the figure was 3.17 h.
As to `C=CC(=O)N1CCN(c2nc(=O)n(-c3ccc4c(ncn4C)c3C(C)C)c3nc(-c4ccccc4F)c(Cl)cc23)[C@@H](C)C1` [Compound 72], the half-life at 1 µM worked out at 1.73 h.

The same series, now with this note: human, pooled cryopreserved human hepatocytes (suspension); working cell density 0.5 × 10^6 viable cells/mL; scaling factor 2544.3; read-out: Human Scale-up Clint.
On to `C=CC(=O)N1CCN(c2nc(=O)n(-c3c(C4CC4)nc(C)nc3C3CC3)c3nc(-c4c(N)cccc4F)c(F)cc23)[C@@H](C)C1` [Compound 29], for which the CLint scaled at 1 µM was found to be 21.7 mL/min/kg.
For `C=CC(=O)N1C[C@H](C)N(c2nc(=O)n(-c3c(C4CC4)nc(C)nc3C3CC3)c3nc(-c4c(O)cccc4F)c(F)cc23)C[C@H]1C` [Compound 52], the CLint scaled at 1 µM came out at 18.5 mL/min/kg.
The same measure, in the same setting: with `C=CC(=O)N1CCN(c2nc(=O)n(-c3ccc4c(ncn4C)c3C(C)C)c3nc(-c4ccccc4F)c(Cl)cc23)[C@@H](C)C1` [Compound 72] the figure was 34 mL/min/kg.

The same series, now with this note: human, pooled cryopreserved human hepatocytes (suspension); working cell density 2 × 10^6 viable cells/mL; read-out: Human In vitro Clint (μl/min/10^6 cells).
Regarding `C=CC(=O)N1CCN(c2nc(=O)n(-c3c(C4CC4)ncnc3C3CC3)c3nc(-c4c(O)cccc4F)c(F)cc23)[C@@H](C)C1` [Compound 40], the hepatocyte CLint at 1 µM is 12.7 µL/min/1e6 cells.
On to `C=CC(=O)N1CCN(c2nc(=O)n(-c3c(C4CC4)ncnc3C3CC3)c3nc(-c4c(N)cccc4F)c(F)cc23)[C@@H](C)C1` [Compound 41], for which the hepatocyte CLint at 1 µM turned out to be 8.2 µL/min/1e6 cells.

Still in this series, the particulars now being: human, pooled cryopreserved human hepatocytes (suspension); working cell density 2 × 10^6 viable cells/mL; read-out: Human In vitro T1/2.
With `C=CC(=O)N1CCN(c2nc(=O)n(-c3c(C4CC4)ncnc3C3CC3)c3nc(-c4c(O)cccc4F)c(F)cc23)[C@@H](C)C1` [Compound 40], the half-life at 1 µM was found to be 0.91 h.
As to `C=CC(=O)N1CCN(c2nc(=O)n(-c3c(C4CC4)ncnc3C3CC3)c3nc(-c4c(N)cccc4F)c(F)cc23)[C@@H](C)C1` [Compound 41], the half-life at 1 µM came out at 1.41 h.

The series is the same for the next values; noted with them: human, pooled cryopreserved human hepatocytes (suspension); working cell density 2 × 10^6 viable cells/mL; read-out: Human Scale-up Clint.
Turning to `C=CC(=O)N1CCN(c2nc(=O)n(-c3c(C4CC4)ncnc3C3CC3)c3nc(-c4c(O)cccc4F)c(F)cc23)[C@@H](C)C1` [Compound 40], the CLint scaled at 1 µM came to 32.3 mL/min/kg.
`C=CC(=O)N1CCN(c2nc(=O)n(-c3c(C4CC4)ncnc3C3CC3)c3nc(-c4c(N)cccc4F)c(F)cc23)[C@@H](C)C1` [Compound 41]: the CLint scaled at 1 µM was determined as 20.9 mL/min/kg.

A further series relates to Lung cancer cell line NCI-H358 containing KRas G12C mutation. The series can be described thus: Assay for cell proliferation (Cell-titer Glo, 5 days). As to conditions: Homo sapiens, NCI-H358, 120 h, NCI-H358, 5 days, Cell-titer Glo; read-out: IC50 (nM), Inhibition of NCI-H358 Cell Proliferation. In kind it is cell-based, human. In a few lines: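 NCI-H358 (KRas G12C) cells, 2000 per well, attached overnight at 37 °C, 5% CO2, then treated with compound for 5 days at 0.5% DMSO final. Proliferation measured by CellTiter-Glo luminescence after 10 min at RT.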
Regarding `C=CC(=O)N1CCN(c2nc(=O)n(-c3c(C4CC4)nc(C)nc3C3CC3)c3nc(-c4c(N)cccc4F)c(F)cc23)[C@@H](C)C1` [Compound 29], the IC50 was 11.4 nM.
For the compound `C=CC(=O)N1CCN(c2nc(=O)n(-c3c(C4CC4)ncnc3C3CC3)c3nc(-c4c(O)cccc4F)c(F)cc23)[C@@H](C)C1` [Compound 40], the IC50 is 7.5 nM.
Still for that read-out and setting: with `C=CC(=O)N1CCN(c2nc(=O)n(-c3c(C4CC4)ncnc3C3CC3)c3nc(-c4c(N)cccc4F)c(F)cc23)[C@@H](C)C1` [Compound 41] the figure was 6.9 nM; with `C=CC(=O)N1C[C@H](C)N(c2nc(=O)n(-c3c(C4CC4)nc(C)nc3C3CC3)c3nc(-c4c(O)cccc4F)c(F)cc23)C[C@H]1C` [Compound 52], 22.8 nM; with `C=CC(=O)N1CCN(c2nc(=O)n(-c3ccc4c(ncn4C)c3C(C)C)c3nc(-c4ccccc4F)c(Cl)cc23)[C@@H](C)C1` [Compound 72], 13.1 nM.
